#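 Assay format: 96-well plates, 48-hour exposure. At the GI50, growth is halved. The concentration for full growth arrest is given as TGI.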
# Assays:
# Assay in all cases: NCI tumour cell line growth inhibition, 48 h
# 786-0 renal = tested on: 786-0 renal
# A498 renal = tested on: A498 renal
# A549 NSCLC = tested on: A549 NSCLC
# ACHN renal = tested on: ACHN renal
# BT-549 breast = tested on: BT-549 breast
# CAKI-1 renal = tested on: CAKI-1 renal
# CCRF-CEM leukemia = tested on: CCRF-CEM leukemia
# COLO 205 colon = tested on: COLO 205 colon
# DU-145 prostate = tested on: DU-145 prostate
# EKVX NSCLC = tested on: EKVX NSCLC
# HCC-2998 colon = tested on: HCC-2998 colon
# HCT-116 colon = tested on: HCT-116 colon
# HCT-15 colon = tested on: HCT-15 colon
# HL-60(TB) leukemia = tested on: HL-60(TB) leukemia
# HOP-62 NSCLC = tested on: HOP-62 NSCLC
# HOP-92 NSCLC = tested on: HOP-92 NSCLC
# HS 578T breast = tested on: HS 578T breast
# HT29 colon = tested on: HT29 colon
# IGROV1 ovarian = tested on: IGROV1 ovarian
# K-562 leukemia = tested on: K-562 leukemia
# KM12 colon = tested on: KM12 colon
# LOX IMVI melanoma = tested on: LOX IMVI melanoma
# M14 melanoma = tested on: M14 melanoma
# MALME-3M melanoma = tested on: MALME-3M melanoma
# MCF7 breast = tested on: MCF7 breast
# MDA-MB-231 breast = tested on: MDA-MB-231 breast
# MDA-MB-435 = tested on: MDA-MB-435
# MOLT-4 leukemia = tested on: MOLT-4 leukemia
# NCI-H226 lung = tested on: NCI-H226 lung
# NCI-H23 lung = tested on: NCI-H23 lung
# NCI-H460 lung = tested on: NCI-H460 lung
# NCI-H522 lung = tested on: NCI-H522 lung
# NCI/ADR-RES ovarian = tested on: NCI/ADR-RES ovarian
# OVCAR-3 ovarian = tested on: OVCAR-3 ovarian
# OVCAR-4 ovarian = tested on: OVCAR-4 ovarian
# OVCAR-5 ovarian = tested on: OVCAR-5 ovarian
# OVCAR-8 ovarian = tested on: OVCAR-8 ovarian
# PC-3 prostate = tested on: PC-3 prostate
# RPMI-8226 leukemia = tested on: RPMI-8226 leukemia
# RXF 393 renal = tested on: RXF 393 renal
# SF-268 CNS = tested on: SF-268 CNS
# SF-295 CNS = tested on: SF-295 CNS
# SF-539 CNS = tested on: SF-539 CNS
# SK-MEL-2 melanoma = tested on: SK-MEL-2 melanoma
# SK-MEL-28 melanoma = tested on: SK-MEL-28 melanoma
# SK-MEL-5 melanoma = tested on: SK-MEL-5 melanoma
# SK-OV-3 ovarian = tested on: SK-OV-3 ovarian
# SN12C renal = tested on: SN12C renal
# SNB-19 CNS = tested on: SNB-19 CNS
# SNB-75 CNS = tested on: SNB-75 CNS
# SR leukemia = tested on: SR leukemia
# SW-620 colon = tested on: SW-620 colon
# T-47D breast = tested on: T-47D breast
# TK-10 renal = tested on: TK-10 renal
# U251 CNS = tested on: U251 CNS
# UACC-257 melanoma = tested on: UACC-257 melanoma
# UACC-62 melanoma = tested on: UACC-62 melanoma
# UO-31 renal = tested on: UO-31 renal
smiles,measurement,setting,value
CCn1c(-c2nonc2N)nc2c(C#CC(C)(C)O)nc(CN3CCCC3)cc21,GI50,786-0 renal,18.7 µM
same,TGI,786-0 renal,> 25 µM
same,GI50,A498 renal,1.39 µM
same,TGI,A498 renal,14.6 µM
same,GI50,A549 NSCLC,> 25 µM
same,TGI,A549 NSCLC,> 25 µM
same,GI50,ACHN renal,> 25 µM
same,TGI,ACHN renal,> 25 µM
same,GI50,BT-549 breast,18.8 µM
same,TGI,BT-549 breast,> 25 µM
same,GI50,CAKI-1 renal,> 25 µM
same,TGI,CAKI-1 renal,> 25 µM
same,GI50,CCRF-CEM leukemia,20.5 µM
same,TGI,CCRF-CEM leukemia,> 25 µM
same,GI50,COLO 205 colon,> 25 µM
same,TGI,COLO 205 colon,> 25 µM
same,GI50,DU-145 prostate,> 25 µM
same,TGI,DU-145 prostate,> 25 µM
same,GI50,EKVX NSCLC,> 25 µM
same,TGI,EKVX NSCLC,> 25 µM
same,GI50,HCC-2998 colon,> 25 µM
same,TGI,HCC-2998 colon,> 25 µM
same,GI50,HCT-116 colon,> 25 µM
same,TGI,HCT-116 colon,> 25 µM
same,GI50,HCT-15 colon,> 25 µM
same,TGI,HCT-15 colon,> 25 µM
same,GI50,HL-60(TB) leukemia,> 25 µM
same,TGI,HL-60(TB) leukemia,> 25 µM
same,GI50,HOP-62 NSCLC,> 25 µM
same,TGI,HOP-62 NSCLC,> 25 µM
same,GI50,HOP-92 NSCLC,> 25 µM
same,TGI,HOP-92 NSCLC,> 25 µM
same,GI50,HS 578T breast,7.39 µM
same,TGI,HS 578T breast,> 25 µM
same,GI50,HT29 colon,> 25 µM
same,TGI,HT29 colon,> 25 µM
same,GI50,IGROV1 ovarian,9.23 µM
same,TGI,IGROV1 ovarian,> 25 µM
same,GI50,K-562 leukemia,> 25 µM
same,TGI,K-562 leukemia,> 25 µM
same,GI50,KM12 colon,> 25 µM
same,TGI,KM12 colon,> 25 µM
same,GI50,LOX IMVI melanoma,> 25 µM
same,TGI,LOX IMVI melanoma,> 25 µM
same,GI50,M14 melanoma,> 25 µM
same,TGI,M14 melanoma,> 25 µM
same,GI50,MALME-3M melanoma,> 25 µM
same,TGI,MALME-3M melanoma,> 25 µM
same,GI50,MCF7 breast,20 µM
same,TGI,MCF7 breast,> 25 µM
same,GI50,MDA-MB-231 breast,> 25 µM
same,TGI,MDA-MB-231 breast,> 25 µM
same,GI50,MDA-MB-435,> 25 µM
same,TGI,MDA-MB-435,> 25 µM
same,GI50,MOLT-4 leukemia,> 20.4 µM
same,TGI,MOLT-4 leukemia,> 25 µM
same,GI50,NCI-H226 lung,> 25 µM
same,TGI,NCI-H226 lung,> 25 µM
same,GI50,NCI-H23 lung,> 25 µM
same,TGI,NCI-H23 lung,> 25 µM
same,GI50,NCI-H460 lung,> 25 µM
same,TGI,NCI-H460 lung,> 25 µM
same,GI50,NCI-H522 lung,18.3 µM
same,TGI,NCI-H522 lung,> 25 µM
same,GI50,NCI/ADR-RES ovarian,> 25 µM
same,TGI,NCI/ADR-RES ovarian,> 25 µM
same,GI50,OVCAR-3 ovarian,> 25 µM
same,TGI,OVCAR-3 ovarian,> 25 µM
same,GI50,OVCAR-4 ovarian,> 25 µM
same,TGI,OVCAR-4 ovarian,> 25 µM
same,GI50,OVCAR-5 ovarian,> 25 µM
same,TGI,OVCAR-5 ovarian,> 25 µM
same,GI50,OVCAR-8 ovarian,> 25 µM
same,TGI,OVCAR-8 ovarian,> 25 µM
same,GI50,PC-3 prostate,> 25 µM
same,TGI,PC-3 prostate,> 25 µM
same,GI50,RPMI-8226 leukemia,> 25 µM
same,TGI,RPMI-8226 leukemia,> 25 µM
same,GI50,RXF 393 renal,6.31 µM
same,TGI,RXF 393 renal,> 25 µM
same,GI50,SF-268 CNS,> 25 µM
same,TGI,SF-268 CNS,> 25 µM
same,GI50,SF-295 CNS,10.9 µM
same,TGI,SF-295 CNS,> 25 µM
same,GI50,SF-539 CNS,16.9 µM
same,TGI,SF-539 CNS,> 25 µM
same,GI50,SK-MEL-2 melanoma,> 25 µM
same,TGI,SK-MEL-2 melanoma,> 25 µM
same,GI50,SK-MEL-28 melanoma,> 25 µM
same,TGI,SK-MEL-28 melanoma,> 25 µM
same,GI50,SK-MEL-5 melanoma,> 25 µM
same,TGI,SK-MEL-5 melanoma,> 25 µM
same,GI50,SK-OV-3 ovarian,> 25 µM
same,TGI,SK-OV-3 ovarian,> 25 µM
same,GI50,SN12C renal,> 25 µM
same,TGI,SN12C renal,> 25 µM
same,GI50,SNB-19 CNS,> 25 µM
same,TGI,SNB-19 CNS,> 25 µM
same,GI50,SNB-75 CNS,8.29 µM
same,TGI,SNB-75 CNS,> 25 µM
same,GI50,SR leukemia,> 25 µM
same,TGI,SR leukemia,> 25 µM
same,GI50,SW-620 colon,> 25 µM
same,TGI,SW-620 colon,> 25 µM
same,GI50,T-47D breast,6.84 µM
same,TGI,T-47D breast,> 25 µM
same,GI50,TK-10 renal,17.9 µM
same,TGI,TK-10 renal,> 25 µM
same,GI50,U251 CNS,> 25 µM
same,TGI,U251 CNS,> 25 µM
same,GI50,UACC-257 melanoma,> 25 µM
same,TGI,UACC-257 melanoma,> 25 µM
same,GI50,UACC-62 melanoma,> 25 µM
same,TGI,UACC-62 melanoma,> 25 µM
same,GI50,UO-31 renal,> 25 µM
same,TGI,UO-31 renal,> 25 µM
Cn1ccnc1Sc1ccc(/C=N\NC(=O)c2cccc(F)c2)cc1[N+](=O)[O-],TGI,786-0 renal,> 100 µM
same,TGI,A498 renal,65.7 µM
same,TGI,A549 NSCLC,> 100 µM
same,TGI,ACHN renal,> 100 µM
same,TGI,BT-549 breast,> 100 µM
same,TGI,CAKI-1 renal,> 100 µM
same,TGI,CCRF-CEM leukemia,> 100 µM
same,TGI,COLO 205 colon,> 100 µM
same,TGI,DU-145 prostate,> 100 µM
same,TGI,EKVX NSCLC,> 100 µM
same,TGI,HCC-2998 colon,> 100 µM
same,TGI,HCT-116 colon,> 100 µM
same,TGI,HCT-15 colon,> 100 µM
same,TGI,HL-60(TB) leukemia,> 100 µM
same,TGI,HOP-62 NSCLC,> 100 µM
same,TGI,HOP-92 NSCLC,63.7 µM
same,TGI,HS 578T breast,70.6 µM
same,TGI,HT29 colon,> 100 µM
same,TGI,IGROV1 ovarian,53 µM
same,TGI,K-562 leukemia,> 100 µM
same,TGI,KM12 colon,> 100 µM
same,TGI,LOX IMVI melanoma,> 100 µM
same,TGI,M14 melanoma,> 100 µM
same,TGI,MALME-3M melanoma,> 100 µM
same,TGI,MCF7 breast,91.5 µM
same,TGI,MDA-MB-231 breast,> 100 µM
same,TGI,MDA-MB-435,> 100 µM
same,TGI,MOLT-4 leukemia,> 100 µM
same,TGI,NCI-H226 lung,> 100 µM
same,TGI,NCI-H23 lung,> 100 µM
same,TGI,NCI-H460 lung,> 100 µM
same,TGI,NCI-H522 lung,72.1 µM
same,TGI,NCI/ADR-RES ovarian,> 100 µM
same,TGI,OVCAR-3 ovarian,> 100 µM
same,TGI,OVCAR-4 ovarian,> 100 µM
same,TGI,OVCAR-5 ovarian,> 100 µM
same,TGI,OVCAR-8 ovarian,63.5 µM
same,TGI,PC-3 prostate,63.2 µM
same,TGI,RPMI-8226 leukemia,> 100 µM
same,TGI,RXF 393 renal,94.3 µM
same,TGI,SF-268 CNS,53.9 µM
same,TGI,SF-295 CNS,> 100 µM
same,TGI,SF-539 CNS,66.4 µM
same,TGI,SK-MEL-2 melanoma,> 100 µM
same,TGI,SK-MEL-28 melanoma,> 100 µM
same,TGI,SK-MEL-5 melanoma,> 100 µM
same,TGI,SK-OV-3 ovarian,89.8 µM
same,TGI,SN12C renal,> 100 µM
same,TGI,SNB-19 CNS,77.1 µM
same,TGI,SNB-75 CNS,59.5 µM
same,TGI,SR leukemia,> 100 µM
same,TGI,SW-620 colon,> 100 µM
same,TGI,T-47D breast,> 100 µM
same,TGI,TK-10 renal,> 100 µM
same,TGI,U251 CNS,43.7 µM
same,TGI,UACC-257 melanoma,> 100 µM
same,TGI,UACC-62 melanoma,> 100 µM
same,TGI,UO-31 renal,> 100 µM

# Reference: PubChem BioAssay (NCI)
